# Measured values as given in PubChem BioAssay AID1963969 (Molecular Pharmacology Branch, DTP, NCI, 2024).
# pIC50: −log10 of the molar value.
# Tested on: 817829-284-R-J1-PDC multi-cell spheroid viability
# Test: Anticancer human tumor 817829-284-R-J1-PDC patient-derived colon adenocarcinoma cell line growth inhibition [PI3K]
# Conditions: for pIC50: curve of first compound; for viability, T/C: stronger effect = lower value
# Procedure, shortened: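 Viability of mixed-cell spheroids was determined after exposure to pairwise combinations, one partner being inavolisib, alpelisib, duvelisib or copanlisib. Highest tested concentration matched clinical Cmax where known and 10 microM where not, descending in half-log steps.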
# [1] = second compound 0.00316 µM, first compound 0.0316 µM
# [2] = second compound 0.00316 µM, first compound 0.1 µM
# [3] = second compound 0.00316 µM, first compound 0.316 µM
# [4] = second compound 0.00316 µM, first compound 1 µM
# [5] = second compound 0.01 µM, first compound 0.0316 µM
# [6] = second compound 0.01 µM, first compound 0.1 µM
# [7] = second compound 0.01 µM, first compound 0.316 µM
# [8] = second compound 0.01 µM, first compound 1 µM
# [9] = second compound 0.0316 µM, first compound 0.0316 µM
# [10] = second compound 0.0316 µM, first compound 0.1 µM
# [11] = second compound 0.0316 µM, first compound 0.316 µM
# [12] = second compound 0.0316 µM, first compound 1 µM
# [13] = second compound 0.1 µM, first compound 0.0316 µM
# [14] = second compound 0.1 µM, first compound 0.1 µM
# [15] = second compound 0.1 µM, first compound 0.316 µM
# [16] = second compound 0.1 µM, first compound 1 µM
# [17] = second compound 0.316 µM, first compound 0.0316 µM
# [18] = second compound 0.316 µM, first compound 0.1 µM
# [19] = second compound 0.316 µM, first compound 0.316 µM
# [20] = second compound 0.316 µM, first compound 1 µM
# [21] = second compound 1 µM, first compound 0.0316 µM
# [22] = second compound 1 µM, first compound 0.1 µM
# [23] = second compound 1 µM, first compound 0.316 µM
# [24] = second compound 1 µM, first compound 1 µM
# [25] = second compound 0.00316 µM, first compound 3.16 µM
# [26] = second compound 0.00316 µM, first compound 10 µM
# [27] = second compound 0.01 µM, first compound 3.16 µM
# [28] = second compound 0.01 µM, first compound 10 µM
# [29] = second compound 0.0316 µM, first compound 3.16 µM
# [30] = second compound 0.0316 µM, first compound 10 µM
# [31] = second compound 0.1 µM, first compound 3.16 µM
# [32] = second compound 0.1 µM, first compound 10 µM
# [33] = second compound 0.316 µM, first compound 3.16 µM
# [34] = second compound 0.316 µM, first compound 10 µM
# [35] = second compound 1 µM, first compound 3.16 µM
# [36] = second compound 1 µM, first compound 10 µM
# 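Also: spheroids exposed to agents for seven days before readout.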
# 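For viability, T/C in this document: percent of vehicle DMSO control viability which is 100%.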
structure (smiles),measurement,setting,value
CCN1CCN(Cc2ccc(Nc3ncc(F)c(-c4cc(F)c5nc(C)n(C(C)C)c5c4)n3)nc2)CC1 + COc1c(OCCCN2CCOCC2)ccc2c3n(c(=NC(=O)c4cnc(N)nc4)nc12)CCN3,pIC50,second compound 0.00316 µM,< 6.00
same,pIC50,second compound 0.01 µM,< 6.00
same,pIC50,second compound 0.0316 µM,7.24
same,pIC50,second compound 0.1 µM,> 8.50
same,pIC50,second compound 0.316 µM,> 8.50
same,pIC50,second compound 1 µM,> 8.50
same,"viability, T/C","second compound 0.00316 µM, first compound 0.00316 µM",113%
same,"viability, T/C","second compound 0.00316 µM, first compound 0.01 µM",83.4%
same,"viability, T/C",[1],72.7%
same,"viability, T/C",[2],50.2%
same,"viability, T/C",[3],50.7%
same,"viability, T/C",[4],53.8%
same,"viability, T/C","second compound 0.01 µM, first compound 0.00316 µM",75.4%
same,"viability, T/C","second compound 0.01 µM, first compound 0.01 µM",60.3%
same,"viability, T/C",[5],58.7%
same,"viability, T/C",[6],58%
same,"viability, T/C",[7],47.8%
same,"viability, T/C",[8],50.4%
same,"viability, T/C","second compound 0.0316 µM, first compound 0.00316 µM",56%
same,"viability, T/C","second compound 0.0316 µM, first compound 0.01 µM",55.5%
same,"viability, T/C",[9],73.6%
same,"viability, T/C",[10],27.9%
same,"viability, T/C",[11],41.4%
same,"viability, T/C",[12],48.2%
same,"viability, T/C","second compound 0.1 µM, first compound 0.00316 µM",36.2%
same,"viability, T/C","second compound 0.1 µM, first compound 0.01 µM",32%
same,"viability, T/C",[13],27.9%
same,"viability, T/C",[14],21.1%
same,"viability, T/C",[15],31.3%
same,"viability, T/C",[16],38.5%
same,"viability, T/C","second compound 0.316 µM, first compound 0.00316 µM",22%
same,"viability, T/C","second compound 0.316 µM, first compound 0.01 µM",16%
same,"viability, T/C",[17],21.6%
same,"viability, T/C",[18],21.2%
same,"viability, T/C",[19],34.1%
same,"viability, T/C",[20],29.4%
same,"viability, T/C","second compound 1 µM, first compound 0.00316 µM",9.7%
same,"viability, T/C","second compound 1 µM, first compound 0.01 µM",9.65%
same,"viability, T/C",[21],9.55%
same,"viability, T/C",[22],12.1%
same,"viability, T/C",[23],16.5%
same,"viability, T/C",[24],21.9%
C[C@@H](NC(=O)c1ncnc(N)c1Cl)c1ncc(C(=O)Nc2cc(C(F)(F)F)c(Cl)cn2)s1 + COc1c(OCCCN2CCOCC2)ccc2c3n(c(=NC(=O)c4cnc(N)nc4)nc12)CCN3,pIC50,second compound 0.00316 µM,5.00
same,pIC50,second compound 0.01 µM,< 5.00
same,pIC50,second compound 0.0316 µM,< 5.00
same,pIC50,second compound 0.1 µM,> 7.50
same,pIC50,second compound 0.316 µM,> 7.50
same,pIC50,second compound 1 µM,> 7.50
same,"viability, T/C",[1],126%
same,"viability, T/C",[2],153%
same,"viability, T/C",[3],59.9%
same,"viability, T/C",[4],62%
same,"viability, T/C",[25],69.7%
same,"viability, T/C",[26],69.3%
same,"viability, T/C",[5],101%
same,"viability, T/C",[6],79.9%
same,"viability, T/C",[7],72%
same,"viability, T/C",[8],68.5%
same,"viability, T/C",[27],75.3%
same,"viability, T/C",[28],87.7%
same,"viability, T/C",[9],68.5%
same,"viability, T/C",[10],64.1%
same,"viability, T/C",[11],43.2%
same,"viability, T/C",[12],57.1%
same,"viability, T/C",[29],64%
same,"viability, T/C",[30],72.3%
same,"viability, T/C",[13],31%
same,"viability, T/C",[14],38%
same,"viability, T/C",[15],29.8%
same,"viability, T/C",[16],32.3%
same,"viability, T/C",[31],41.5%
same,"viability, T/C",[32],62.8%
same,"viability, T/C",[17],26.3%
same,"viability, T/C",[18],20%
same,"viability, T/C",[19],24.6%
same,"viability, T/C",[20],23.8%
same,"viability, T/C",[33],21.9%
same,"viability, T/C",[34],16.5%
same,"viability, T/C",[21],11.8%
same,"viability, T/C",[22],10.6%
same,"viability, T/C",[23],10.6%
same,"viability, T/C",[24],9.58%
same,"viability, T/C",[35],10%
same,"viability, T/C",[36],4.95%
Cn1ncc(Cl)c1-c1cc(C(=O)NC(CN)Cc2cccc(F)c2)sc1Cl (stereo unspecified) + COc1c(OCCCN2CCOCC2)ccc2c3n(c(=NC(=O)c4cnc(N)nc4)nc12)CCN3,pIC50,second compound 0.00316 µM,7.14
same,pIC50,second compound 0.01 µM,7.10
same,pIC50,second compound 0.0316 µM,7.34
same,pIC50,second compound 0.1 µM,> 7.50
same,pIC50,second compound 0.316 µM,> 7.50
same,pIC50,second compound 1 µM,> 7.50
same,"viability, T/C",[1],105%
same,"viability, T/C",[2],29.4%
same,"viability, T/C",[3],21.1%
same,"viability, T/C",[4],20.9%
same,"viability, T/C",[25],18.1%
same,"viability, T/C",[26],15.5%
same,"viability, T/C",[5],69.6%
same,"viability, T/C",[6],46.2%
same,"viability, T/C",[7],25.6%
same,"viability, T/C",[8],25.9%
same,"viability, T/C",[27],18.3%
same,"viability, T/C",[28],10.8%
same,"viability, T/C",[9],59%
same,"viability, T/C",[10],31.2%
same,"viability, T/C",[11],16.8%
same,"viability, T/C",[12],20.9%
same,"viability, T/C",[29],15.8%
same,"viability, T/C",[30],10.5%
same,"viability, T/C",[13],25.4%
same,"viability, T/C",[14],25.4%
same,"viability, T/C",[15],21.2%
same,"viability, T/C",[16],15.2%
same,"viability, T/C",[31],13.9%
same,"viability, T/C",[32],10.3%
same,"viability, T/C",[17],20.2%
same,"viability, T/C",[18],23.4%
same,"viability, T/C",[19],15.2%
same,"viability, T/C",[20],12.2%
same,"viability, T/C",[33],11.1%
same,"viability, T/C",[34],8.71%
same,"viability, T/C",[21],9.57%
same,"viability, T/C",[22],11.1%
same,"viability, T/C",[23],8.51%
same,"viability, T/C",[24],9.47%
same,"viability, T/C",[35],7.2%
same,"viability, T/C",[36],8.41%
